# Where two headings read alike, the source gives them in different places.
# Tests used:
# MT-2 cells = assay: Cytotoxicity in MT-2 cells (XTT); type: cell-based; details: 4 days
# Method: Cytotoxicity of test compounds in MT-2 cells was measured a by colorimetric method using XTT [(sodium 3′-(1-(phenylamino)-carbonyl)-3,4-tetrazolium-bis(4-methoxy-6-nitro) bezenesulfonic acid hydrate)] (PolySciences) as previously described^7. Briefly, 100 μl of a test compound at graded concentrations was added to an equal volume of cells (1×10^5 cells/ml) in 96 well plates followed by incubation at 37° C. for 4 days, which ran parallel to the neutralization assay in MT-2. Following the addition of XTT the soluble intracellular formazan was quantitated colorimetrically at 450 nm 4 h later. […] (See Table 4)
# PBMC = assay: Cytotoxicity in PBMC (XTT); type: cell-based; details: 7 days
# Method: For the PBMC toxicity assay we used 5×10^5 cells/ml and the cytotoxicity of the compounds was measured after 7 days of incubation as previously reported^8. Following the addition of XTT the soluble intracellular formazan was quantitated colorimetrically at 450 nm 4 h later. The percent of cytotoxicity and the CC50 values were calculated as above. (See Table 4)
# HIV-1 Integrase = biological target: T1, HIV-1 Integrase (Human immunodeficiency virus type 1 group M subtype B, UniProt P04585); assay: HIV-1 Integrase Assay (ExpressBio kit); type: biochemical
# T1 construct: HIV-1 Integrase Assay Kit from ExpressBio; purchased ExpressBio (Thurnmont, Md.)
# Method: HIV-1 Integrase was performed as per the protocol in the HIV-1 Integrase Assay Kit from ExpressBio (Thurnmont, Md.). (See Table 3)
# [1] = system: laboratory-adapted HIV-1 strains; assay: Multi-cycle infection assay in MT-2 cells (p24 ELISA); details: read-out: IC50 (μm)
# Method: The inhibitory activity of test compounds on infection by laboratory-adapted HIV-1 strains was determined as previously described^6. Briefly, 1×10^4 MT-2 cells were infected with HIV-1IIIB and other lab-adapted HIV-1 at 100 TCID50 (0.01 MOI) in the presence or absence of test compounds at graded concentrations overnight. The culture supernatants were then removed and fresh media were added. On the fourth day post-infection, 100 μl of culture supernatants were collected from each well, mixed with equal volume of 5% Triton X-100 and tested for p24 antigen by “sandwich” ELISA.
# [2] = system: lab-adapted and primary HIV-1 isolates; assay: Multi-cycle infection assay in PBMC (p24 ELISA)
# Method: PBMCs were isolated from the blood of healthy donors at the New York Blood Center by standard density gradient centrifugation using Histopaque-1077 (Sigma-Aldrich). The cells were cultured at 37° C. for 2 hr. […] The PHA-stimulated cells (5×10^4 cells/well) were infected with lab-adapted and primary HIV-1 isolates at 500 TCID50 (0.01 MOI) in the absence or presence of inhibitors at graded concentrations. Culture media were replaced every 3 days with fresh media. The supernatants were collected 7 days post-infection and tested for p24 antigen by ELISA. The percent inhibition of p24 production and IC50 values were calculated by the GraphPad Prism software.
# [3] = system: cell-to-cell fusion mediated by HIV-1 (HIV-1HXB2 Env); type: cell-based; details: Cell-Cell fusion Assay
# Method: To assess the ability of NBD-compounds to block cell-to-cell fusion mediated by HIV-1 we performed cell fusion assay as previously described 3^1-3 with some modifications. […] Following fusion of the two cell lines Tat induce the expression of β-gal enzyme. […] The percent inhibition and the IC50 values were calculated using the GraphPad Prism software.
# [4] = RT-resistant isolate AZT-R, subtype B, MT-2, co-receptor X4
# [5] = fusion resistant isolate pNL4-3 gp41(36G) V38E, N42S, subtype B, MT-2, co-receptor X4
# [6] = laboratory strain MN, subtype B, MT-2, co-receptor X4
# [7] = laboratory strain SF2, subtype B, MT-2, co-receptor R5X4
# [8] = protease resistant isolate HIV-1RF/L-323-12-3, subtype B, MT-2, co-receptor X4
# [9] = read-out: IC50 (μm), laboratory strain BaL, subtype B, co-receptor R5
# [10] = read-out: IC50 (μm), laboratory strain SF162, subtype B, co-receptor R5
# [11] = read-out: IC50 (μm), primary isolate 92US657, subtype B, co-receptor R5
# [12] = read-out: IC50 (μm), primary isolate 93MW959, subtype C, co-receptor R5
# [13] = read-out: IC50 (μm), primary isolate RU570, subtype G, co-receptor R5
molecule,measurement,setting,value
NBD-556,CC50,MT-2 cells,> 280 µM
same,CC50,PBMC,> 280 µM
same,IC50,HIV-1 Integrase,> 200 µM
same,IC50,[1]; [4],58 ± 14.3 µM
same,IC50,[1]; [5],11 µM
same,IC50,[1]; [6],15.9 ± 1.6 µM
same,IC50,"[1]; laboratory strain RF, subtype B, MT-2, co-receptor R5X4",18.7 ± 1.3 µM
same,IC50,[1]; [7],≥ 118 µM
same,IC50,[1]; [8],> 59 µM
same,IC50,"[2]; read-out: IC50 (μm), laboratory strain 89.6, subtype B, co-receptor R5X4",4.8 ± 1 µM
same,IC50,[2]; [9],≥ 118 µM
same,IC50,[2]; [10],48.9 ± 7.3 µM
same,IC50,[2]; [11],48 ± 1.65 µM
same,IC50,[2]; [12],57.2 ± 8.7 µM
same,IC50,"[2]; read-out: IC50 (μm), primary isolate 93TH060, subtype E, co-receptor R5",> 45 µM
same,IC50,[2]; [13],19.5 ± 2.3 µM
Cc1nc(C(NC(=O)C(=O)Nc2ccc(Cl)cc2)C2CCCCN2)sc1CO (centres unmarked) [NBD-09027],CC50,MT-2 cells,> 108 µM
same,CC50,PBMC,> 160 µM
same,IC50,[1]; [4],4.4 ± 1.1 µM
same,IC50,[1]; [5],5.8 ± 0.3 µM
same,IC50,"[1]; laboratory strain IIIB, subtype B, MT-2, co-receptor X4",4.7 ± 0.6 µM
same,IC50,[1]; [6],4 µM
same,IC50,[1]; [7],5.7 ± 0.9 µM
same,IC50,[1]; [8],14.7 ± 2.3 µM
same,IC50,[2]; [9],35.8 ± 1.2 µM
same,IC50,[2]; [10],12.7 ± 0.7 µM
same,IC50,[2]; [11],8.6 ± 0.9 µM
same,IC50,"[2]; read-out: IC50 (μm), primary isolate 93IN101, subtype C, co-receptor R5",> 87 µM
same,IC50,[2]; [12],> 43.5 µM
same,IC50,"[2]; read-out: IC50 (μm), primary isolate BCF02, (Group 0), co-receptor R5",~87 µM
same,IC50,[2]; [13],8.5 ± 0.8 µM
COc1ccnc2[nH]cc(C(=O)C(=O)N3CCN(C(=O)c4ccccc4)C[C@H]3C)c12 [BMS-378806],IC50,[3],0.014 µM

# From US11059808B2, “Substituted phenylpyrrolecarboxamides with therapeutic activity in HIV” (New York Blood Center, Inc., priority 2014, dated 2021)
